Assay results as given in patent US8722661B2, “Pyrrolopyrimidone and pyrrolopyridone inhibitors of tankyrase” (Genentech, Inc., priority 2012, dated 2014).

What was measured:
Tankyrase 1 (TNKS1) = target: T1, Tankyrase 1 (TNKS1) (Homo sapiens, UniProt O95271); test: μHTS-TNKS-IWR2 TR-FRET binding assay (TNKS1)
T1 construct: construct: 1088-1327, 1266M
Description: (§1) μHTS-TNKS-IWR2TR-FRET Binding Assay
(§2) (10 μL/well in BD1536-well plate, a single point)
Reagents and Stock Solutions
(§3) Biotin-IWR2: 10 mM Biotin-IWR2 stock in DMSO, stored at −20° C.
Assay buffer 1a (AB 1a) for TNKS dilution: 50 mM Tris, pH 7.4, 100 mM sodium chloride solution, 1 mM magnesium chloride solution, 1 mM DL-dithiothreitol solution, 0.2 mg/mL bovine serum albumin solution, 0.025% NP-40.
Assay buffer 1b (AB 1b) for Biotin-IWR2 dilution: 50 mM Tris, pH 7.4, 100 mM sodium chloride solution, 1 mM magnesium chloride solution, 1 mM DL-dithiothreitol solution, 0.2 mg/mL bovine serum albumin solution, 0.05% NP-40
Assay buffer 1c (AB 1c) for compound dilution: 50 mM Tris, pH 7.4, 100 mM sodium chloride solution, 1 mM magnesium chloride solution, 1 mM DL-dithiothreitol solution, 0.2 mg/mL bovine serum albumin solution
Assay buffer 2 (AB2) for Eu/APC: 50 mM Tris, pH 7.4, 100 mM sodium chloride solution, 1 mM magnesium chloride solution, 0.2 mg/mL bovine serum albumin solution
Reagent Stock Solution Preparation
Prepare BLANK well stock solution: 5% DMSO/AB1b buffer
Prepare TNKS1 stock solution (5× stock): 300 nM TNKS in AB1a buffer
(§4) Transfer 3 μL/well above solution (solution 1,2,3) to an empty assay plate (BD1536-well plate) as follows:
TOTL and cpd wells: Solution 1 (Biotin-IWR2):
BLNK wells: Solution 2 (No Biotin-IWR2):
POSITIVE CONTROL wells: Solution 3 (Biotin-IWR2+XAV939)
(§5) Transfer 3 μL/well of the above diluted compound solutions or compound dilution buffer to the above assay plate.
(§6) Add 2 μL/well of 300 nM TNKS stock solution (4) to every well in the above assay plate.
Centrifuge the assay plate at 2100 rpm for 2 minutes.
(§7) Incubate the assay plate at 26° C. for 30 minutes.
(§8) Incubate the assay plate at 26° C. for 60 minutes.

tankyrase 2 (His6-TNKS2) = target: T2, tankyrase 2 (His6-TNKS2) (Homo sapiens, UniProt Q9H2K2); test: μHTS-TNKS-IWR2 TR-FRET binding assay with His6-TNKS2 in place of TNKS1; settings: Table I
T2 construct: His6-tankyrase 2 (construct: 934-1166)
T2 sequence (Q9H2K2 934-1166): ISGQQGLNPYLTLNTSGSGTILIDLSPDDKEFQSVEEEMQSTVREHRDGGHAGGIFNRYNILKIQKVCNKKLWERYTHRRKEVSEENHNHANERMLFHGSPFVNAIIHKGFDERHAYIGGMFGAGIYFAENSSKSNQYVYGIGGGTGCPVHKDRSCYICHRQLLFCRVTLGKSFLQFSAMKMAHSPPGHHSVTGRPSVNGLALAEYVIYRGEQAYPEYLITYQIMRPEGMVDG
Description: as §1, §2
(§9) Alternatively, in place of His6-TNKS1 can use either His6-tankyrase 2 (construct: 934-1166) (His6-TNKS2) or His6-PARP1 (full length).
as §3
Positive control: 10 mM XAV 939 in DMSO, stored at −20° C.
(§10) Prepare Biotinylated IWR2 stock solution (3.33× stock) for TOTL and cpd wells: 200 nM Biotin-IWR2 in 5% DMSO/AB1b buffer
(§11) Prepare POSITIVE CONTROL well stock solution (3.33× stock): 200 nM XAV939 in 200 nM Biotin-IWR2/5% DMSO/AB1b buffer
(§12) (Alternatively, use TNKS2 or PARP1 stock solutions.)
(§13) Prepare Eu/APC stock solution (5× stock): 3.5 nM Eu-SA/50 nM APC-His6Ab in AB2 buffer
(§14) Add 25 μL/well 1.5% DMSO/AB1c buffer in each compound well to the compound concentration at 74 μM in 8.8% DMSO/AB1c buffer or in the 2 μL DMSO CONTROL wells (BLANK, TOTAL and POSITIVE wells) in the compound plate.
as §4, §5, §6, §7, §8
(§15) Read the assay plate immediately at excitation wavelength of 330 nm and emission wavelength of […] in time resolved fluorescence mode.
(§16) Representative compound data for assays are listed below in Table I. Values are in uM.

[1] = target: T3, PARP1 (His6-PARP1, full length) (Homo sapiens, UniProt P09874); test: μHTS-TNKS-IWR2 TR-FRET binding assay with His6-PARP1 in place of TNKS1; settings: Table I
T3 construct: His6-PARP1 (full length)
T3 sequence (P09874 whole entry): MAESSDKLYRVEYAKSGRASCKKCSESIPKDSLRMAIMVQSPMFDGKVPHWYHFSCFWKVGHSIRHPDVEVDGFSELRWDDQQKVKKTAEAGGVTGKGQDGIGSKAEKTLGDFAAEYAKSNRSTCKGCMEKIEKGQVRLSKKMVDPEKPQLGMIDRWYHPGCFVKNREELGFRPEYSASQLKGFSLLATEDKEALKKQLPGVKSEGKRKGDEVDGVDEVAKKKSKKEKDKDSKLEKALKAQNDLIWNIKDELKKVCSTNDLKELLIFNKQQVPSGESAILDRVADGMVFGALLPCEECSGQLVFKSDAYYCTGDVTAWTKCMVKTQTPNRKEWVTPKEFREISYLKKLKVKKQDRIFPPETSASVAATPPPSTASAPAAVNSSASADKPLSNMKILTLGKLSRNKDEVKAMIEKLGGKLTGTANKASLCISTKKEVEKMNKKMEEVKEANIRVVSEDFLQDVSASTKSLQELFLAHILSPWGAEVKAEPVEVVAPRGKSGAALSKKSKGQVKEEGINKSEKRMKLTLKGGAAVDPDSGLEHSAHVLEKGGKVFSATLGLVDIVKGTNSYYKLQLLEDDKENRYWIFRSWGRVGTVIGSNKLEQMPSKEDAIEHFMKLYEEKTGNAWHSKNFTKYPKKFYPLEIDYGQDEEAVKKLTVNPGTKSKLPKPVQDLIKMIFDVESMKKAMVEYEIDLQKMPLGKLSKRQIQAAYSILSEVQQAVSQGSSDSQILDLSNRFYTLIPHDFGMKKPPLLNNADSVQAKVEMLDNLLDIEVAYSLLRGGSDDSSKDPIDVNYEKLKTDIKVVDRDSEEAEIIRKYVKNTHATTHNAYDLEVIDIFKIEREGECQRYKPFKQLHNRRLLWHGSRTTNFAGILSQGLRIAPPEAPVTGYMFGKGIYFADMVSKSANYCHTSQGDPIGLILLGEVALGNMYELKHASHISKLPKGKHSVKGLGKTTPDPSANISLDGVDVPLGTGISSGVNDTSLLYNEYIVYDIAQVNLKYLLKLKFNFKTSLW
Description: as §1, §2, §9, §3
Positive control: 10 mM […] in DMSO, stored at −20° C.
as §10, §11, §12, §13, §14, §4, §5, §6, §7, §8, §15, §16

T1 sequence (O95271 1088-1327): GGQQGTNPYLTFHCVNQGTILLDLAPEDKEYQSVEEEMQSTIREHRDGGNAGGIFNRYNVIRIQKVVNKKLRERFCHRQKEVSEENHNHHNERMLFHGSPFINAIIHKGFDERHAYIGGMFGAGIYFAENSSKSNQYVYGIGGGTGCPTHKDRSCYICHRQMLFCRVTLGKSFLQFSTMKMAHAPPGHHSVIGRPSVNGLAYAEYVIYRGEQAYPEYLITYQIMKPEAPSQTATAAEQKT

Compound	IC50 (Tankyrase 1 (TNKS1)) [nM]	IC50 (tankyrase 2 (His6-TNKS2)) [nM]	IC50 [1] [nM]
Cn1ccc2c(=O)[nH]c(N3CCN(c4ccc(C#N)cn4)CC3)nc21 [Example 32, 6-[4-(7-Methyl-4-oxo-4,7-dihydro-3H-pyrrolo[2,3-d]pyrimidin-2-yl)-piperazin-1-yl]-nicotinonitrile]	129	90	229
Cn1ccc2c(=O)[nH]c(N3CCN(c4ncccn4)CC3)nc21 [Example 8, 7-Methyl-2-(4-pyrimidin-2-yl-piperazin-1-yl)-3,7-dihydro-pyrrolo[2,3-d]pyrimidin-4-one]	190	143	339
Cn1ccc2c(=O)[nH]c(N3CCN(c4ccc(F)cc4F)CC3)nc21 [Example 20, 2-[4-(2,4-Difluoro-phenyl)-piperazin-1-yl]-7-methyl-3,7-dihydro-pyrrolo[2,3-d]pyrimidin-4-one]	31	36	1220
Cn1ccc2c(=O)[nH]c(N3CCN(c4ccc(C#N)cc4)CC3)nc21 [Example 22, 4-[4-(7-Methyl-4-oxo-4,7-dihydro-3H-pyrrolo[2,3-d]pyrimidin-2-yl)-piperazin-1-yl]-benzonitrile]	97	74	453
CN1CCN(c2nc3c(ccn3C)c(=O)[nH]2)CC1 [Example 11, 7-Methyl-2-(4-methyl-piperazin-1-yl)-3,7-dihydro-pyrrolo[2,3-d]pyrimidin-4-one]	358	285	471
Cn1ccc2c(=O)[nH]c(N3CCC(c4ccccc4)C3)nc21 (stereo not drawn) [Example 16, 7-Methyl-2-(3-phenyl-pyrrolidin-1-yl)-3,7-dihydro-pyrrolo[2,3-d]pyrimidin-4-one]	915	1070	1260
Cn1ccc2c(=O)[nH]c(N3CCN(c4cc(C(F)(F)F)ccn4)CC3)nc21 [Example 25, 7-Methyl-2-[4-(4-trifluoromethyl-pyridin-2-yl)-piperazin-1-yl]-3,7-dihydro-pyrrolo[2,3-d]pyrimidin-4-one]	292	200	557
Cn1ccc2c(=O)[nH]c(N3CCN(c4ccccn4)CC3)nc21 [Example 4, 7-Methyl-2-(4-pyridin-2-yl-piperazin-1-yl)-3,7-dihydro-pyrrolo[2,3-d]pyrimidin-4-one]	134	118	437
Cn1ccc2c(=O)[nH]c(N3CCN(S(C)(=O)=O)CC3)nc21 [Example 13, 2-(4-Methanesulfonyl-piperazin-1-yl)-7-methyl-3,7-dihydro-pyrrolo[2,3-d]pyrimidin-4-one]	112	126	604
Cn1ccc2c(=O)[nH]c(N3CC(C)(c4ccc(Br)cc4)C3)nc21 [Example 15, 2-[3-(4-Bromo-phenyl)-3-methyl-azetidin-1-yl]-7-methyl-3,7-dihydro-pyrrolo[2,3-d]pyrimidin-4-one]	348	192	3460
Cn1ccc2c(=O)[nH]c(N3CCN(c4cc(Cl)cc(Cl)c4)CC3)nc21 [Example 7, 2-[4-(3,5-Dichloro-phenyl)-piperazin-1-yl]-7-methyl-3,7-dihydro-pyrrolo[2,3-d]pyrimidin-4-one]	494	405	> 50000
Cn1ccc2c(=O)[nH]c(N3CCN(c4cnccn4)CC3)nc21 [Example 31, 7-Methyl-2-(2,3,5,6-tetrahydro-[1,2′]bipyrazinyl-4-yl)-3,7-dihydro-pyrrolo[2,3-d]pyrimidin-4-one]	155	133	318
Cn1ccc2c(=O)[nH]c(N3CCN(c4ccncc4)CC3)nc21 [Example 1, 7-Methyl-2-(4-pyridin-4-yl-piperazin-1-yl)-3,7-dihydro-pyrrolo[2,3-d]pyrimidin-4-one]	722	593	143

Second part, the compound after the results:

IC50 (Tankyrase 1 (TNKS1)) [nM]	IC50 (tankyrase 2 (His6-TNKS2)) [nM]	IC50 [1] [nM]	Compound
38	45	785	Cn1ccc2c(=O)[nH]c(-c3ccc(C(F)(F)F)cc3)nc21 [Example 38, 7-Methyl-2-(4-trifluoromethyl-phenyl)-3,7-dihydro-pyrrolo[2,3-d]pyrimidin-4-one]
117	109	289	CCOc1ccc(-c2nc3c(ccn3C)c(=O)[nH]2)cn1 [Example 40, 2-(6-Ethoxy-pyridin-3-yl)-7-methyl-3,7-dihydro-pyrrolo[2,3-d]pyrimidin-4-one]
535	640	> 50000	CCCn1ccc2c(=O)[nH]c(-c3ccc(C(F)(F)F)cc3)nc21 [Example 51, 7-Propyl-2-(4-trifluoromethyl-phenyl)-3,7-dihydro-pyrrolo[2,3-d]pyrimidin-4-one]
123	132	> 50000	CCn1ccc2c(=O)[nH]c(-c3ccc(C(F)(F)F)cc3)cc21 [Example 46, 1-Ethyl-6-(4-trifluoromethyl-phenyl)-1,5-dihydro-pyrrolo[3,2-c]pyridin-4-one]
43	43	4700	Cn1ccc2c(=O)[nH]c(N3CCC(c4ccc(F)cc4)CC3)nc21 [Example 48, 2-[4-(4-Fluoro-phenyl)-piperidin-1-yl]-7-methyl-3,7-dihydro-pyrrolo[2,3-d]pyrimidin-4-one]
425	237	13500	O=c1[nH]c(-c2ccc(C(F)(F)F)cc2)nc2c1ccn2CC(O)CO (stereo not drawn) [Example 54, 7-(2,3-Dihydroxy-propyl)-2-(4-trifluoromethyl-phenyl)-3,7-dihydro-pyrrolo[2,3-d]pyrimidin-4-one]
110	143	1180	Cn1ccc2c(=O)[nH]c(-c3ccc(C#N)cc3)nc21 [Example 43, 4-(7-Methyl-4-oxo-4,7-dihydro-3H-pyrrolo[2,3-d]pyrimidin-2-yl)-benzonitrile]
33	55	10600	O=c1[nH]c(N2CCN(c3ccccc3F)CC2)nc2c1ccn2CO [Example 60, 2-[4-(2-Fluoro-phenyl)-piperazin-1-yl]-7-hydroxymethyl-3,7-dihydro-pyrrolo[2,3-d]pyrimidin-4-one]
6180	6080	1120	Cn1ccc2c(=O)[nH]c(N3C[C@@H]4C[C@H]3CN4c3cccc(F)c3)nc21 [Example 33, 2-[(1S,4S)-5-(3-Fluoro-phenyl)-2,5-diaza-bicyclo[2.2.1]hept-2-yl]-7-methyl-3,7-dihydro-pyrrolo[2,3-d]pyrimidin-4-one]
176	163	> 50000	CCn1ccc2c(=O)[nH]c(-c3ccc(C(F)(F)F)cc3)nc21 [Example 50, 7-Ethyl-2-(4-trifluoromethyl-phenyl)-3,7-dihydro-pyrrolo[2,3-d]pyrimidin-4-one]
34	28	14800	O=c1[nH]c(N2CCN(c3c(F)cccc3F)CC2)nc2c1ccn2CC(O)CO (stereo not drawn) [Example 61, 2-(4-(2,6-difluorophenyl)piperazin-1-yl)-7-(2,3-dihydroxypropyl)-3H-pyrrolo[2,3-d]pyrimidin-4(7H)-one]
108	100	1310	Cn1ccc2c(=O)[nH]c(N3CC(C)(c4ccccc4)C3)nc21 [Example 58, 7-Methyl-2-(3-methyl-3-phenyl-azetidin-1-yl)-3,7-dihydro-pyrrolo[2,3-d]pyrimidin-4-one]
273	251	21000	CCn1ccc2c(=O)[nH]c(N3CCN(c4ccccc4F)CC3)cc21 [Example 36, 1-Ethyl-6-[4-(2-fluoro-phenyl)-piperazin-1-yl]-1,5-dihydro-pyrrolo[3,2-c]pyridin-4-one]
